One may read the IC50 as the concentration needed to halve the response being measured.

Here are results for 29 compounds from US20230339937A1, “CONDENSED RING COMPOUNDS THAT INHIBIT H-PGDS” (SATO PHARMACEUTICAL CO., LTD., priority 2020, published 2023).

In this assay the target is T1, Recombinant human H-PGDS (Homo sapiens, UniProt O60760).
T1 construct: made in house; host or cells: E. coli
Description: H-PGDS inhibitory activity (prostaglandin D2 production from prostaglandin H2, measured by LC-MS/MS). The class given is biochemical. The note with it: recombinant human H-PGDS 1.0 nM expressed in E. coli; prostaglandin H2 25 μM; preincubated 15 minutes on ice, reacted on ice for 1 minute; concentration that inhibits prostaglandin D2 production by 50%. Summed up: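 Recombinant human H-PGDS (E. coli-expressed, 1.0 nM final) preincubated with compound 15 min on ice in 20 mM Tris-HCl pH 8.0, 2 mM MgCl2, 2 mM GSH, 0.5 mg/mL γ-globulin. Reaction with 25 µM PGH2 run 1 min on ice, stopped with FeCl2/citric acid, PGD2 quantified by LC-MS/MS. Activity expressed as % of DMSO control after subtracting non-enzymatic PGD2.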

T1 sequence (O60760 whole entry): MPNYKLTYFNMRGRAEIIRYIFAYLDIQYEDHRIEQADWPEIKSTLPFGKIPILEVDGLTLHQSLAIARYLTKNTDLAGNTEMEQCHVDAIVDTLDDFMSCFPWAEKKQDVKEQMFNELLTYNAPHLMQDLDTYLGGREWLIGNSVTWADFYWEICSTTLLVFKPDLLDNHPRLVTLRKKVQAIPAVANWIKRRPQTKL

For `O=C(N[C@H]1CC[C@H](NCC(F)F)CC1)c1ccc(-c2nccc3occc23)c(F)c1` [Example 326, N-{trans-4-[(2,2-difluoroethyl)amino]cyclohexyl}-3-fluoro-4-(furo[3,2-c]pyridin-4-yl)benzamide], the IC50 stood at 1.3 nM.

On to `O=C(N[C@H]1CC[C@H](C2(O)CC2)CC1)c1ccc(-c2nccc3occc23)c(F)c1` [Example 327, 3-fluoro-4-(furo[3,2-c]pyridin-4-yl)-N-[trans-4-(1-hydroxycyclopropyl)cyclohexyl]benzamide], for which the 50% inhibitory concentration (IC50) amounted to 1.1 nM.

For `O=C(N[C@H]1CCN(c2ncccn2)C1)c1ccc(-c2nccc3occc23)c(F)c1` [Example 328, (S)-3-fluoro-4-(furo[3,2-c]pyridin-4-yl)-N-[1-(pyrimidin-2-yl)pyrrolidin-3-yl]benzamide], the IC50 was found to be 0.74 nM.

`CC(C)(O)CO[C@H]1CC[C@H](NC(=O)c2ccc(-c3nccc4occc34)c(F)c2)CC1` [Example 329, 3-fluoro-4-(furo[3,2-c]pyridin-4-yl)-N-[trans-4-(2-hydroxy-2-methylpropoxy)cyclohexyl]benzamide]: the IC50 came to 2 nM.

On to `Cc1cc2occc2c(-c2ccc(C(=O)NC3CCN(c4nnnn4C)CC3)cc2)n1` [Example 330, N-[1-(1-methyl-1H-tetrazol-5-yl)piperidin-4-yl]-4-(6-methylfuro[3,2-c]pyridin-4-yl)benzamide], for which the IC50 was found to be 1.7 nM.

As for `Cc1cc2occc2c(-c2ccc(C(=O)N[C@H]3CC[C@H](NCC(F)F)CC3)cc2)n1` [Example 331, N-{trans-4-[(2,2-difluoroethyl)amino]cyclohexyl}-4-(6-methylfuro[3,2-c]pyridin-4-yl)benzamide], the IC50 amounted to 1.8 nM.

Turning to `Cc1cc2occc2c(-c2ccc(C(=O)N[C@H]3CCN(c4ncccn4)C3)cc2)n1` [Example 332, (S)-4-(6-methylfuro[3,2-c]pyridin-4-yl)-N-[1-(pyrimidin-2-yl)pyrrolidin-3-yl]benzamide], the IC50 worked out at 1.6 nM.

On to `Cc1cc2occc2c(-c2ccc(C(=O)N[C@H]3CC[C@H](O)CC3)cc2)n1` [Example 333, N-(trans-4-hydroxycyclohexyl)-4-(6-methylfuro[3,2-c]pyridin-4-yl)benzamide], for which the IC50 is 2.3 nM.

With `Cc1cc2occc2c(-c2ccc(C(=O)N[C@H]3CC[C@H](C4(O)CC4)CC3)cc2)n1` [Example 334, N-[trans-4-(1-hydroxycyclopropyl)cyclohexyl]-4-(6-methylfuro[3,2-c]pyridin-4-yl)benzamide], the IC50 amounted to 2 nM.

Regarding `Cc1cc2occc2c(-c2ccc(C(=O)NC3CCN(C(=O)C4CC4)CC3)cc2)n1` [Example 335, N-[1-(cyclopropanecarbonyl)piperidin-4-yl]-4-(6-methylfuro[3,2-c]pyridin-4-yl)benzamide], the IC50 is 1.2 nM.

Regarding `O=C(NC1CCN(c2ncccn2)CC1)c1ccc(-c2nccc3[nH]ccc23)cc1` [Example 336, N-[1-(pyrimidin-2-yl)piperidin-4-yl]-4-(1H-pyrrolo[3,2-c]pyridin-4-yl)benzamide], the IC50 came out at 0.94 nM.

Consider `O=C(N[C@H]1CC[C@H](O)CC1)c1ccc(-c2nccc3[nH]ccc23)cc1` [Example 337, N-(trans-4-hydroxycyclohexyl)-4-(1H-pyrrolo[3,2-c]pyridin-4-yl)benzamide], for which the IC50 came out at 0.44 nM.

In the case of `Cc1cc2[nH]ccc2c(-c2ccc(C(=O)N[C@H]3CC[C@H](C(C)(C)O)CC3)cc2)n1` [Example 338, N-[trans-4-(2-hydroxypropan-2-yl)cyclohexyl]-4-(6-methyl-1H-pyrrolo[3,2-c]pyridin-4-yl)benzamide], the IC50 is 2.4 nM.

As to `Cc1cnc(-c2ccc(C(=O)N[C@H]3CC[C@H](C(C)(C)O)CC3)cc2)c2cc[nH]c12` [Example 339, N-[trans-4-(2-hydroxypropan-2-yl)cyclohexyl]-4-(7-methyl-1H-pyrrolo[3,2-c]pyridin-4-yl)benzamide], the concentration for half-maximal inhibition (IC50) was 1.4 nM.

As for `CC(C)(O)[C@H]1CC[C@H](NC(=O)c2ccc(-c3nccc4[nH]ccc34)c(F)c2)CC1` [Example 340, 3-fluoro-N-[trans-4-(2-hydroxypropan-2-yl)cyclohexyl]-4-(1H-pyrrolo[3,2-c]pyridin-4-yl)benzamide], the IC50 is 1 nM.

As to `O=C(N[C@H]1CC[C@H](O)CC1)c1ccc(-c2nccc3sccc23)cc1` [Example 341, N-(trans-4-hydroxycyclohexyl)-4-(thieno[3,2-c]pyridin-4-yl)benzamide], the IC50 turned out to be 2.4 nM.

With `Cc1cc2occc2c(-c2ccc(C(=O)N[C@H]3CC[C@H](OCC(C)(C)O)CC3)cc2)n1` [Example 342, N-[trans-4-(2-hydroxy-2-methylpropoxy)cyclohexyl]-4-(6-methylfuro[3,2-c]pyridin-4-yl)benzamide], the IC50 came to 3 nM.

Consider `Cc1cc2occc2c(-c2ccc(C(=O)NC34CCC(O)(CC3)CC4)cc2)n1` [Example 343, N-(4-hydroxybicyclo[2.2.2]octan-1-yl)-4-(6-methylfuro[3,2-c]pyridin-4-yl)benzamide], for which the IC50 came to 1.2 nM.

For `Cc1cc2occc2c(-c2ccc(C(=O)N[C@H]3CC[C@](C)(O)CC3)cc2)n1` [Example 344, N-(trans-4-hydroxy-4-methylcyclohexyl)-4-(6-methylfuro[3,2-c]pyridin-4-yl)benzamide], the IC50 is 1.7 nM.

As for `O=C(NC12CCC(O)(CC1)CC2)c1ccc(-c2nccc3occc23)c(F)c1` [Example 345, 3-fluoro-4-(furo[3,2-c]pyridin-4-yl)-N-(4-hydroxybicyclo[2.2.2]octan-1-yl)benzamide], the IC50 worked out at 1.2 nM.

For the compound `C[C@]1(O)CC[C@H](NC(=O)c2ccc(-c3nccc4occc34)c(F)c2)CC1` [Example 346, 3-fluoro-4-(furo[3,2-c]pyridin-4-yl)-N-(trans-4-hydroxy-4-methylcyclohexyl)benzamide], the IC50 was 2 nM.

As for `O=C(N[C@H]1CC[C@H](OCC2(O)CC2)CC1)c1ccc(-c2nccc3occc23)c(F)c1` [Example 347, 3-fluoro-4-(furo[3,2-c]pyridin-4-yl)-N-(trans-4-[(1-hydroxycyclopropyl)methoxy]cyclohexyl)benzamide], the IC50 stood at 2 nM.

On to `CC(C)(O)CO[C@H]1CC[C@@H](NC(=O)c2ccc(-c3nccc4occc34)cc2)CC1` [Example 348, 4-(furo[3,2-c]pyridin-4-yl)-N-[cis-4-(2-hydroxy-2-methylpropoxy)cyclohexyl]benzamide], for which the IC50 was 1.7 nM.

With `O=C(NC12CCC(O)(CC1)C2)c1ccc(-c2nccc3occc23)cc1` [Example 349, 4-(furo[3,2-c]pyridin-4-yl)-N-(4-hydroxybicyclo[2.2.1]heptan-1 yl)benzamide], the IC50 was 1.5 nM.

Take `CC(C)(O)[C@]1(O)CC[C@@H](NC(=O)c2ccc(-c3nccc4occc34)cc2)CC1` [Example 350, 4-(furo[3,2-c]pyridin-4-yl)-N-[cis-4-hydroxy-4-(2-hydroxypropan-2-yl)cyclohexyl]benzamide]: the IC50 stood at 27 nM.

For `N#CC12CCC(NC(=O)c3ccc(-c4nccc5occc45)cc3)(CC1)CC2` [Example 351, N-(4-cyanobicyclo[2.2.2]octan-1-yl)-4-(furo[3,2-c]pyridin-4-yl)benzamide], the half-maximal inhibitory concentration (IC50) stood at 1.3 nM.

Take `NC(=O)C12CCC(NC(=O)c3ccc(-c4nccc5occc45)cc3)(CC1)CC2` [Example 352, 4-[4-(furo[3,2-c]pyridin-4-yl)benzamide]bicyclo[2.2.2]octane-1-carboxamide]: the 50% inhibitory concentration (IC50) came to 0.89 nM.

With `O=C(N[C@H]1CC[C@@H](OCC2(O)CC2)CC1)c1ccc(-c2nccc3occc23)cc1` [Example 353, 4-(furo[3,2-c]pyridin-4-yl)-N-(cis-4-[(1-hydroxycyclopropyl)methoxy]cyclohexyl)benzamide], the IC50 was 1.4 nM.

On to `CC(C)(O)[C@H]1CC[C@@H](NC(=O)c2ccc(-c3nccc4occc34)cc2)CC1` [Example 354, 4-(furo[3,2-c]pyridin-4-yl)-N-[cis-4-(2-hydroxypropan-2-yl)cyclohexyl]benzamide], for which the 50% inhibitory concentration (IC50) is 35 nM.
